Data on six compounds can be found in paper PMC9686985, “Chimeric Peptides Derived from Bovine Lactoferricin and Buforin II: Antifungal Activity against Reference Strains and Clinical Isolates of Candida spp” (Antibiotics, 2022).

Holding throughout (type): cell-based, Candida albicans
The test system of assay [1] is C. albicans ATCC SC5314. The protocol: (§1) Antifungal susceptibility testing was carried out using the broth microdilution (BMD) method, following the CLSI M27-A3 guidelines with slight modifications. Briefly, cells (0.5–2.5 × 10^3 CFU/mL) were incubated with peptides (200, 100, 50, 25, 12.5, and 6.25 µg/mL) at 37 °C for 48 h. MICs were visualized and densitometry (595 nm, microplate reader, Bio-Rad, ᵢMark^TM) was used to determine the lowest concentration of peptide that caused a significant decrease (MIC/2 or ≥50%) compared with the growth control (cells incubated in absence of peptide) (n = 3). In order to verify that the peptides were able to kill the yeast cells, the plates were also evaluated for minimum fungicidal concentration (MFC). Briefly, aliquots from each well from susceptibility testing assays were transferred to plates containing Sabouraud dextrose agar (SDA), which were then incubated at 37 °C for 24 h. The highest dilution with no growth on the agar plate was considered to be the MFC.

Assay [2] concerns C. albicans 256 HUSI-PUJ. Particulars: for MFC: 24 h; for MIC: 48 h. The protocol:
as §1

In assay [3] the test system is C. albicans ATCC SC5314. The protocol:
(§2) The in vitro interactions between the peptides (C6, C8, and C9) and the FLC drug were evaluated in a checkerboard assay, as previously described by Cokol et al.. Briefly, each isolate was prepared by picking colonies from an overnight culture in SBD at 37 °C and suspended in a sterile normal saline PBS buffer. The fungal inoculum was adjusted to 0.5 MacFarland and the inoculum was adjusted to 0.5–2.5 × 10^3 CFU/mL. The drug-peptide combinations were formed over a range of concentrations: 0 (control) and 0.06 to 2 times the MIC [51]. The fractional inhibitory concentration index (FICI) was calculated as follows:
(§3) FICI=CML peptide in combination/CMI peptide alone+CML FLC in combination/CMI FLC alone
(§4) The calculated FICI was reported as synergy with values FICI ≤ 0.5, additive FICI > 0.5–1, indifference FICI > 1–4, and antagonism FICI ≥ 4 [52].
(§5) A synergistic effect was considered to be when the effect of the combination exceeded the effects of the individual components. An additive effect was when the effect of the combination was equal to the sum of the effects of the individual components.
The source holds these as a separate data set.

Assay [4] deals with C. albicans 256 HUSI-PUJ. The protocol:
as §2, §3, §4, §5

A further assay has as its system C. albicans 256. The following applies: for Time-kill result: Fungicide concentration / Time-kill result: Fungistatic concentration: after 48 h of incubation, RPMI 1640, 37 °C, Bioscreen C. The method, then: (§6) A time-kill kinetic assay was carried out according to the method previously described by Pfaller and coworkers with minor modifications. The peptides (C5, C6, C8, and C9) diluted in RPMI were tested at a range of concentrations: 0 (control), 0.2, 0.5, 1, and 2 times the MIC value for each strain. The isolates were subcultured on SBD, and then an inoculum was adjusted to a 0.5–2.5 × 10^3 CFU/mL in an RPMI 1640 medium. Yeast inoculum (150 uL) was added to a 100-well plate containing serial dilutions of the peptides. The plates were incubated with agitation at 37 °C in a plate reader (Bioscreen C MBR automated turbidometric analyzer, Growth Curves Ltd., Helsinki, Finland), which takes hourly absorbance readings. Moreover, fluconazole MICs were used as a control. The readings were analyzed with Bioscreen software (Growth Curves USA, Piscataway, NJ, USA) and GraphPad Prism 8.0.1 (GraphPad Soft-ware, San Diego, CA, USA). Statistical comparisons were made using an analysis of variance (two-way ANOVA) followed by a Tukey–Kramer post hoc test. P values less than 0.005 were considered significant. […] Moreover, previously determined FLC MICs (data not shown) were used as a control.

Another assay concerns C. albicans SC5314. Particulars: for Time-kill result: Fungicide concentration / Time-kill result: Fungistatic concentration: after 48 h of incubation, RPMI 1640, 37 °C, Bioscreen C. The method, then:
as §6

The mark [5] stands for this setting: FLC-sensitive reference strain, aliquots plated on SDA, 37 °C, 24 h, no growth.
The mark [6] stands for this setting: FLC-sensitive reference strain, broth microdilution CLSI M27-A3, 37 °C, 48 h, ≥50% decrease vs growth control, n = 3.
Setting [7] is: FLC-resistant clinical isolate, aliquots plated on SDA, 37 °C, no growth.
Setting [8] is: FLC-resistant clinical isolate, broth microdilution CLSI M27-A3, 37 °C, ≥50% decrease vs growth control, n = 3.
Setting [9] is: fungistatic = growth inhibition >70% for 48 h.

Where two headings read alike, the source gives them in different places. Positions of bridges follow the written chain, without caps; N, C: chain ends. Non-standard residues stand in square brackets, D forms with d. Residues, ends and D or L forms follow the SMILES beside them. Chains are numbered I, II in the order given. No end group written: not given here. Ahx = NCCCCCC(=O)O Where only a bound is given, the exact number is not on record here.

By MFC is commonly meant the smallest concentration meeting the test's criterion for killing the fungus. A higher MFC goes with less potent killing. Usually MIC stands for the lowest concentration that inhibits growth of the organism. A lower MIC goes with a more susceptible organism. As to `CC(C)C[C@H](NC(=O)[C@H](CC(C)C)NC(=O)[C@H](CCCNC(=N)N)NC(=O)CCCCCNC(=O)[C@H](CCCNC(=N)N)NC(=O)[C@H](Cc1c[nH]c2ccccc12)NC(=O)[C@H](CCC(N)=O)NC(=O)[C@H](Cc1c[nH]c2ccccc12)NC(=O)[C@H](CCCNC(=N)N)NC(=O)[C@@H](N)CCCNC(=N)N)C(=O)N[C@@H](CCCNC(=N)N)C(N)=O` [C2] (H-RRWQWR[Ahx]RLLR-NH2; N-terminus assumed), the MFC with C. albicans ATCC SC5314 [1] (ATCC SC5314, 24 h) is recorded as greater than 122 µM; in the assay on C. albicans ATCC SC5314 [1] (setting [5]), greater than 200 µg/mL; against C. albicans 256 HUSI-PUJ [2] (256 HUSI-PUJ), greater than 122 µM; with C. albicans 256 HUSI-PUJ [2] (setting [7]) it was greater than 200 µg/mL. In addition, the MIC against C. albicans ATCC SC5314 [1] (ATCC SC5314, 48 h) was 122 µM; with C. albicans ATCC SC5314 [1] (setting [6]), 200 µg/mL; against C. albicans 256 HUSI-PUJ [2] (256 HUSI-PUJ), 122 µM; against C. albicans 256 HUSI-PUJ [2] (setting [8]) it was 200 µg/mL.
With `CC(C)C[C@H](NC(=O)[C@H](CC(C)C)NC(=O)[C@@H](N)CCCNC(=N)N)C(=O)N[C@@H](CCCNC(=N)N)C(=O)NCCCCCC(=O)N[C@@H](CCCNC(=N)N)C(=O)N[C@@H](CCCNC(=N)N)C(=O)N[C@@H](Cc1c[nH]c2ccccc12)C(=O)N[C@@H](CCC(N)=O)C(=O)N[C@@H](Cc1c[nH]c2ccccc12)C(=O)N[C@@H](CCCNC(=N)N)C(N)=O` [C4] (H-RLLR[Ahx]RRWQWR-NH2; N-terminus assumed), the MFC in the assay on C. albicans ATCC SC5314 [1] (ATCC SC5314, 24 h) is listed as greater than 122 µM; in the assay on C. albicans ATCC SC5314 [1] (setting [5]), greater than 200 µg/mL; with C. albicans 256 HUSI-PUJ [2] (256 HUSI-PUJ) it was greater than 122 µM; with C. albicans 256 HUSI-PUJ [2] (setting [7]), greater than 200 µg/mL. Also, the MIC is reported as greater than 122 µM in the assay with C. albicans ATCC SC5314 [1] (ATCC SC5314, 48 h); greater than 200 µg/mL against C. albicans ATCC SC5314 [1] (setting [6]); 122 µM with C. albicans 256 HUSI-PUJ [2] (256 HUSI-PUJ); 200 µg/mL against C. albicans 256 HUSI-PUJ [2] (setting [8]).
For `CC(C)C[C@H](NC(=O)[C@H](CC(C)C)NC(=O)[C@H](CCCCN)NC(=O)[C@H](CCCCN)NC(=O)[C@H](CC(C)C)NC(=O)[C@H](CC(C)C)NC(=O)[C@H](CCCCN)NC(=O)CCCCCNC(=O)[C@H](CCCCN)NC(=O)[C@H](Cc1c[nH]c2ccccc12)NC(=O)[C@H](CCC(N)=O)NC(=O)[C@H](Cc1c[nH]c2ccccc12)NC(=O)[C@H](CCCCN)NC(=O)[C@@H](N)CCCCN)C(=O)N[C@@H](CCCCN)C(N)=O` [C7] (H-KKWQWK[Ahx]KLLKKLLK-NH2), the MFC is greater than 101 µM against C. albicans ATCC SC5314 [1] (ATCC SC5314, 24 h) and greater than 101 µM in the assay with C. albicans 256 HUSI-PUJ [2] (256 HUSI-PUJ). The MIC in the assay with C. albicans ATCC SC5314 [1] (ATCC SC5314, 48 h) is recorded as 101 µM; in the assay with C. albicans 256 HUSI-PUJ [2] (256 HUSI-PUJ) it was 101 µM.
In the case of `CC(C)C[C@H](NC(=O)[C@H](CC(C)C)NC(=O)[C@H](CCCNC(=N)N)NC(=O)CCCCCNC(=O)[C@H](CCCCNC(=O)[C@H](CCCNC(=N)N)NC(=O)[C@H](Cc1c[nH]c2ccccc12)NC(=O)[C@H](CCC(N)=O)NC(=O)[C@H](Cc1c[nH]c2ccccc12)NC(=O)[C@H](CCCNC(=N)N)NC(=O)[C@@H](N)CCCNC(=N)N)NC(=O)[C@H](CCCNC(=N)N)NC(=O)[C@H](Cc1c[nH]c2ccccc12)NC(=O)[C@H](CCC(N)=O)NC(=O)[C@H](Cc1c[nH]c2ccccc12)NC(=O)[C@H](CCCNC(=N)N)NC(=O)[C@@H](N)CCCNC(=N)N)C(=O)N[C@@H](CCCNC(=N)N)C(N)=O` [C8] (I: H-RRWQWRK[Ahx]RLLR-NH2 / II: H-RRWQWR; amide I:7-II:C; N-terminus assumed), the MFC against C. albicans ATCC SC5314 [1] (ATCC SC5314, 24 h) is 37 µM; with C. albicans ATCC SC5314 [1] (setting [5]), 100 µg/mL; in the assay with C. albicans 256 HUSI-PUJ [2] (256 HUSI-PUJ) it was 37 µM; against C. albicans 256 HUSI-PUJ [2] (setting [7]), 100 µg/mL. In addition, the MIC in the assay with C. albicans ATCC SC5314 [1] (ATCC SC5314, 48 h) was found to be 37 µM; with C. albicans ATCC SC5314 [1] (setting [6]), 100 µg/mL; in the assay with C. albicans 256 HUSI-PUJ [2] (256 HUSI-PUJ) it was 37 µM; in the assay on C. albicans 256 HUSI-PUJ [2] (setting [8]) it was 100 µg/mL. Besides, the “Effect of the combination with FLC (by FICI)” value in the assay with C. albicans ATCC SC5314 [3] (checkerboard) is recorded as “synergistic”; with C. albicans 256 HUSI-PUJ [4] (checkerboard) it was “indifferent”. Further, the entries for the “MICa/A: factor by which the chimera is potentiated in combination” value in the assay with C. albicans ATCC SC5314 [3] (peptide combined with FLC) and in the assay on C. albicans 256 HUSI-PUJ [4] (peptide combined with FLC) were 8 and 2, respectively. For the same compound, the Inhibition of growth entry in the assay on C. albicans 256 (256, 48 h) was “more than 90%”; with C. albicans SC5314 (SC5314, 48 h), “more than 90%”. The “Time-kill result: Fungicide concentration” value is 200 µg/mL with C. albicans 256 (fungicidal = yeast kill ≥99%), 73 µM in the assay with C. albicans 256 (value in brackets), 200 µg/mL with C. albicans SC5314 (fungicidal = yeast kill ≥99%) and 73 µM in the assay with C. albicans SC5314 (value in brackets). The “Time-kill result: Fungistatic concentration” value worked out at 100 µg/mL in the assay with C. albicans 256 (setting [9]), 37 µM with C. albicans 256 (value in brackets), 100 µg/mL in the assay on C. albicans SC5314 (setting [9]) and 37 µM in the assay on C. albicans SC5314 (value in brackets). The “Incubation time up to which yeast growth was inhibited” value with C. albicans 256 (time-kill curve, peptide at 100 µg/mL) is listed as roughly 40 h. The “Incubation time up to which yeast growth was completely inhibited” value with C. albicans SC5314 (time-kill curve, peptide at 100 µg/mL (37 µM)) is recorded as “about 23 h”.
As for “RLLRRLLR [BFII (32–35)Pal, reference compound]”, the MFC against C. albicans ATCC SC5314 [1] (ATCC SC5314, 24 h) is on record as greater than 183 µM; against C. albicans 256 HUSI-PUJ [2] (256 HUSI-PUJ), greater than 183 µM. In addition, the MIC against C. albicans ATCC SC5314 [1] (ATCC SC5314, 48 h) is recorded as greater than 183 µM; in the assay with C. albicans 256 HUSI-PUJ [2] (256 HUSI-PUJ) it was greater than 183 µM.
For the compound RRWQWRRLLR-NH2 [C1], the MFC against C. albicans ATCC SC5314 [1] (ATCC SC5314, 24 h) is given as greater than 131 µM; with C. albicans 256 HUSI-PUJ [2] (256 HUSI-PUJ) it was greater than 131 µM. Also, the MIC in the assay on C. albicans ATCC SC5314 [1] (ATCC SC5314, 48 h) was 131 µM; against C. albicans 256 HUSI-PUJ [2] (256 HUSI-PUJ) it was 66 µM.
